Experimental data from patent US9212138B2, “Use of derivatives of indoles for the treatment of cancer” (CENTRE NATIONAL DE LA RECHERCHE SCIENTIFIQUE, priority 2009, dated 2015).

Key:
[1] = Activity of side products, test not stated; settings: side product of the synthesis
MKLP-2 (RabK6) = target: T1, MKLP-2 (RabK6) (Homo sapiens, UniProt O95235, S2A); test: biochemical
T1 construct: Expression clones for MKLP-21-519 (coding for residues 1 to 519) were obtained as follows; His-tag; made in house; host or cells: E. coli BL21(DE3)
T1 sequence (O95235 1-519 S2A limits assumed): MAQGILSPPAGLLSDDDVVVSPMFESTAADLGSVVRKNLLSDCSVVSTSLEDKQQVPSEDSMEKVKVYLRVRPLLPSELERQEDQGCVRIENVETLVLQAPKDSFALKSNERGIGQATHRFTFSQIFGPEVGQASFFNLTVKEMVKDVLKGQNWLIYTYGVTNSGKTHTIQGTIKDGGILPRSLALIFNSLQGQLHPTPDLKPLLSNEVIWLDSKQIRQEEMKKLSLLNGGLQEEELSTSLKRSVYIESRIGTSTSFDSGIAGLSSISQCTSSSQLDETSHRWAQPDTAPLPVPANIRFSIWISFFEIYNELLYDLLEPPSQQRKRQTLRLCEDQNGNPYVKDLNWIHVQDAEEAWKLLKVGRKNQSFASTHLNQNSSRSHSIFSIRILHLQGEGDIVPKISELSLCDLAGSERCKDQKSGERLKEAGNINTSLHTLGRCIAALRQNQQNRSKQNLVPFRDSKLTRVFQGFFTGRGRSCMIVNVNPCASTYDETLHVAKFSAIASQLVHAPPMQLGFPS
Method: All experiments were performed at room temperature using a 96-well Sunrise photometer (Tecan, Maennedorf, Switzerland) at a final volume of 100 μl per well.
Steady-state ATPase rates were measured using the pyruvate kinase/lactate dehydrogenase-linked assay in buffer A25A (25 mM potassium ACES, pH 6.9, 2 mM MgAc2, 2 mM Na-EGTA, 0.1 mM Na-EDTA, 1 mM β-mercaptoethanol) supplemented with 1 mM MgATP; 2 mM PEP; 0.25 mM NADH; 3-10 μg/ml pyruvate kinase; 3 μg/ml lactate dehydrogenase and 8 μM taxol.
The data were analyzed using Kaleidagraph 3.0 (Synergy Software, Reading, Pa.) and Microsoft Excel to obtain the kinetic variables.
When necessary, the inhibitor concentrations were adapted depending on the initial IC50 value. Experiments were performed in triplicate and averaged data points are shown with error bars±SD.

| Compound | activity [1] | IC50 (MKLP-2 (RabK6)) [µM] |
| --- | --- | --- |
| NC(=O)/C(=C/c1cccnc1)c1c[nH]c2ccccc12 | no activity | – |
| CCOc1ccncc1/C=C(\C#N)c1c[nH]c2ccc(OC)cc12 [Example 47b] | no activity | – |
| COc1ccc2[nH]cc(/C(C#N)=C/c3cccnc3F)c2c1 [Example 48, (Z)-3-(2-fluoropyridin-3-yl)-2-(5-methoxy-1H-indol-3-yl)-acrylonitrile] | – | < 5 |
| COc1ccc2[nH]cc(/C(C#N)=C/c3ccc(Cl)nc3)c2c1 [Example 49, (Z)-3-(6-chloropyridin-3-yl)-2-(5-methoxy-1H-indol-3-yl)-acrylonitrile] | – | 5 to 10 |
| COc1ccc2[nH]cc(/C(C#N)=C/c3ccsc3)c2c1 [Example 50, (Z)-2-(5-methoxy-1H-indol-3-yl)-3-thiophen-3-yl-acrylonitrile] | – | > 50 |
| COc1ccc2[nH]cc(/C(C#N)=C/c3cnn(C)c3)c2c1 [Example 51] | – | > 50 |
| COc1ccc2[nH]cc(/C(C#N)=C/c3ccc(OC)nc3)c2c1 [Example 52, (Z)-3-(6-methoxy-pyridin-3-yl)-2-(5-methoxy-1H-indol-3-yl)-acrylonitrile] | – | 10 to 20 |
| COc1ccc2[nH]cc(/C(C#N)=C/c3ccc(C)nc3)c2c1 [Example 53, (Z)-2-(5-methoxy-1H-indol-3-yl)-3-(6-methylpyridin-3-yl)-acrylonitrile] | – | < 5 |
| COc1ccc2[nH]cc(/C(C#N)=C/c3ccc(C#N)nc3)c2c1 [Example 54, (Z)-5-[2-cyano-2-(5-methoxy-1H-indol-3-yl)-vinyl]-picolinonitrile] | – | 5 to 10 |
| N#C/C(=C\c1cccc(C#N)c1)c1c[nH]c2ccc(O)cc12 [Example 55, (Z)-3-[2-cyano-2-(5-hydroxy-1H-indol-3-yl)-vinyl]-benzonitrile] | – | < 5 |
| NC(=O)/C(=C\c1cccnc1)c1c[nH]c2ccccc12 [Example 56, (Z)-2-(1H-indol-3-yl)-3-pyridin-3-yl-acrylamide] | – | > 50 |
| C#C/C(=C\c1cccnc1)c1c[nH]c2ccc(OC)cc12 [Example 58, (E)-5-methoxy-3-(1-(pyridin-3-yl)but-1-en-3-yn-2-yl)-1H-indole] | – | 5 to 10 |
| COc1ccc2[nH]cc(/C(C#N)=C(\C)c3cccnc3)c2c1 [Example 60, (Z)-2-(5-methoxy-1H-indol-3-yl)-3-(pyridin-3-yl)-but-2-enenitrile] | – | < 5 |
| N#C/C(=N\c1cccnc1)c1c[nH]c2ccccc12 [Example 61, (Z)-(1H-indol-3-yl)-(pyridin-3-ylimino)-acetonitrile] | – | < 5 |
